Results taken from patent US4414206A, “Animal feeds” (Bristol-Myers Company, priority 1982, dated 1983).
Entries after “also recorded” stand apart in the source; their conditions may differ.

Legend:
rumen fermentation = assay: Artificial rumen test (in vitro rumen fermentation); conditions: for Cellulose digested (%) / Methane produced (cc) / Propionate produced / Total calories digested (Calories) / Caloric efficiency: mean ± one standard deviation, three observations; for Caloric efficiency: formula in drawing 1
Method: A standard in vitro method for determining compounds which stimulate propionate production during rumen fermentation is the artificial rumen method described in U.S. Pat. No. 3,794,732. […] This property in ruminants is presumably in addition to the previously-described feed-utilization efficiency promoting activity of amphomycin in monogastric animals which involves a different mechanism of action.
Amphomycin was evaluated at doses of 0.025, 0.1 and 0.5 mg per incubation (25 ml. inoculum--artificial saliva with cellulose, starch and urea as nutrients) according to the general procedure of Example 5 of U.S. Pat. No. 3,794,732.
^a Results reported as mean ± one standard deviation. Controls
^b Reported as a percent of total volatile fatty acid calories

Male broiler chickens = assay: Four week growth and feed efficiency study in broiler chicks fed amphomycin-supplemented feed; format: in vivo, chickens (Hubbard breeder pullet×White Mountain males)
Source text: The efficacy of amphomycin in promoting growth and improving the feed efficiency of broiler chicks is illustrated below.
In this example a basal diet was employed containing the following ingredients:
Male broiler chickens (Hubbard breeder pullet×White Mountain males) were used as the test animal. They were housed in electrically heated, metal battery brooders equipped with raised wire-screen floors. […] The room and battery units were left unclean from a previous test that terminated before the chicks were started. Drinking water for the test came from overflow water from a laying cage operation. The water was collected in garbage cans and was allowed to stand overnight to permit particulate matter to settle out. The birds were vaccinated at 7 days of age for Newcastle, Bronchitis and Marek's. The feed trays were fitted with wire screens riding on top of the feed to minimize feed wastage. Feed and water were fed ad libitum. Four groups of ten birds each, chosen on the basis of hatching body weight, were fed the experimental diet for a four week test period and four groups were fed the control diet. The groups of birds and diets were placed in the batteries on the basis of position chosen from tables of random numbers. The birds and the feed were group weighed on a weekly basis. The test was terminated at four weeks of age.
The control diet was prepared as follows:
The experimental diet (for amphomycin concentration
of 4 grams/ton) was prepared as follows:
*calculated for both groups at 800 grams body weight from feed efficiency

[1] = 0.025, 0.1 and 0.5 mg per incubation
[2] = 4 grams/ton amphomycin in feed, versus control group
[3] = broiler chickens, about 4 to 12 grams per ton of feed, on average

Substance: amphomycin
- Urease activity (rumen fermentation; 0.025 mg/tube): 90 % of control
- Cellulose digested (%) (rumen fermentation; 0.025 mg/tube): 64.9 ± 2.1%
- Methane produced (cc) (rumen fermentation; 0.025 mg/tube): 2.88 ± 0.47 cc
- Propionate produced (rumen fermentation; 0.025 mg/tube): 58.9 ± 0.9% of total volatile fatt
- Total calories digested (Calories) (rumen fermentation; 0.025 mg/tube): 1108 ± 22 Calories
- Caloric efficiency (rumen fermentation; 0.025 mg/tube): 62.1 ± 4.5
- Urease activity (rumen fermentation; 0.1 mg/tube): 84 % of control
- Cellulose digested (%) (rumen fermentation; 0.1 mg/tube): 64.0 ± 2.4%
- Methane produced (cc) (rumen fermentation; 0.1 mg/tube): 2.53 ± 0.20 cc
- Propionate produced (rumen fermentation; 0.1 mg/tube): 62.1 ± 1.7% of total volatile fatt
- Total calories digested (Calories) (rumen fermentation; 0.1 mg/tube): 1098 ± 26 Calories
- Caloric efficiency (rumen fermentation; 0.1 mg/tube): 68.9 ± 10.0
- Urease activity (rumen fermentation; 0.5 mg/tube): 60 % of control
- Cellulose digested (%) (rumen fermentation; 0.5 mg/tube): 57.5 ± 4.0%
- Methane produced (cc) (rumen fermentation; 0.5 mg/tube): 1.27 ± 0.07 cc
- Propionate produced (rumen fermentation; 0.5 mg/tube): 67.1 ± 4.7% of total volatile fatt
- Total calories digested (Calories) (rumen fermentation; 0.5 mg/tube): 1029 ± 43 Calories
- Caloric efficiency (rumen fermentation; 0.5 mg/tube): 65.5 ± 16.8
- cellulase / cellulolysis (cellulose digestion) (in words) (rumen fermentation; [1]): did not significantly inhibit; also recorded: decreases slightly; also recorded: does not significantly inhibit
- methane production (in words) (rumen fermentation; [1]): significantly inhibits; also recorded: decreases significantly
- propionate production (in words) (rumen fermentation; [1]): significantly increase; also recorded: increases significantly
- total calories digested (in words) (rumen fermentation; [1]): did not significantly inhibit cellulase or significantly affect total calories digested
- dose that appears to be the most efficacious (rumen fermentation; 25 ml. inoculum per incubation): 0.1 mg. per incubation
- acetate and butyrate production (in words) (rumen fermentation; as the dose increases): decreases
- Body weights in grams at 4 weeks of age (Male broiler chickens; 4 grams/ton amphomycin in feed, ad libitum, four week test, male broiler chickens): 817.5 grams
- Improvement in feed efficiency (Male broiler chickens; [2]): 4.07%
- Percentage increase in weight at end of 4 weeks (Male broiler chickens; [2]): 6.21%
- Feed efficiency calculated as consumption in grams ÷ average body weight in grams (Male broiler chickens; 4 grams/ton amphomycin in feed, calculated at 800 grams body weight from feed efficiency curve): 1.480
- less total feed consumed than comparable chickens fed same diet without amphomycin (Male broiler chickens; [3]): 3%
- more weight gained than comparable chickens fed same diet without amphomycin (Male broiler chickens; [3]): about 3%
